What all share (test): MIC, conventional methods
One assay deals with E. coli. It is filed as cell-based, Escherichia coli. As for the experimental part:
(§1) The following L,L-dipeptides were tested for their minimum inhibitory concentrations against three different bacterial strains as set forth in the table below. The testing protocol followed conventional methods and identified a MIC value reported as micrograms per milliliter (μg/mL). Each of the dipeptides had the following structure: Based on the above results, the sidechain of the methionine mimetic was modified to evaluate the effect of such substitution on MIC values. Again, this test used conventional assays to measure the MIC values of each of these modified mimetics.

The next assay relates to S. aureus. It is filed as cell-based, Staphylococcus aureus. Here is the method: as §1
Another assay deals with P. aer. It is filed as cell-based, Pseudomonas aeruginosa. As for the experimental part:
as §1

[1] abbreviates: Table 2, side chain Q of the methionine mimetic varied.
Where [2] appears, read: Table 1, L,L-dipeptides varied in T.

Molecules are shown by their SMILES. Converted amounts (≈) assume the structure as drawn. Where a SMILES comes first, the peptide text is derived from it. [ ]: non-standard residue; d: D form. The star is where a group is joined. ξ: configuration not given here. ξhCys = NC(CCS)C(=O)O; ξhSer = NC(CCO)C(=O)O; ξC = NC(CS)C(=O)O; tBu = CC(C)(C)*; NHOH = ON*

As to `CS(=O)(=O)CCC(NC(=O)CN)C(=O)NO` (stereo not drawn) [H], the “MIC E. coli” value against E. coli (setting [1]) turned out to be 208 µg/mL (≈ 821 µM). Besides, the “MIC S. aur.” value in the assay with S. aureus (setting [1]) was 104 µg/mL (≈ 411 µM). In addition, the “MIC P. aer.” value in the assay with P. aer. (setting [1]) worked out at 416 µg/mL (≈ 1640 µM).

Take `CCCCC(NC(=O)CN)C(=O)NO` (stereo not drawn) [I]: in the assay on E. coli (setting [1]), the “MIC E. coli” value stood at 69 µg/mL (≈ 339 µM). For the same compound, in the assay on S. aureus (setting [1]), the “MIC S. aur.” value worked out at 51 µg/mL (≈ 251 µM). In addition, the “MIC P. aer.” value in the assay on P. aer. (setting [1]) was 520 µg/mL (≈ 2560 µM).

As to `CSCC[C@H](NC(=O)[C@@H](N)CCCCN)C(=O)NO` [Compound E], the “MIC E. coli” value in the assay on E. coli (setting [2]) stood at 312 µg/mL (≈ 1070 µM). For the same compound, the “MIC S. aur.” value in the assay with S. aureus (setting [2]) stood at 104 µg/mL (≈ 356 µM). In the assay on P. aer. (setting [2]), the “MIC P. aer.” value was more than 1660 µg/mL.

Regarding `CC(C)(C)SCC(NC(=O)CN)C(=O)NO` (stereo not drawn) [N] (H-Gly-[ξC](tBu)-{NHOH}), in the assay on E. coli (setting [1]), the “MIC E. coli” value was 195 µg/mL (≈ 782 µM). Further, the “MIC S. aur.” value in the assay with S. aureus (setting [1]) is 77 µg/mL (≈ 309 µM). Moreover, in the assay with P. aer. (setting [1]), the “MIC P. aer.” value turned out to be 693 µg/mL (≈ 2780 µM).

For the compound `CCSCC(NC(=O)CN)C(=O)NO` (stereo not drawn) [M] (H-Gly-[ξC](Et)-{NHOH}), the “MIC E. coli” value against E. coli (setting [1]) came out at 159 µg/mL (≈ 719 µM). Also, the “MIC S. aur.” value against S. aureus (setting [1]) turned out to be 104 µg/mL (≈ 470 µM). Besides, in the assay with P. aer. (setting [1]), the “MIC P. aer.” value turned out to be 832 µg/mL (≈ 3760 µM).

As to `CCSCCC(NC(=O)CN)C(=O)NO` (stereo not drawn) [J] (H-Gly-[ξhCys](Et)-{NHOH}), the “MIC E. coli” value in the assay with E. coli (setting [1]) came to 129 µg/mL (≈ 548 µM). Besides, the “MIC S. aur.” value against S. aureus (setting [1]) worked out at 60 µg/mL (≈ 255 µM). The “MIC P. aer.” value against P. aer. (setting [1]) was found to be 554 µg/mL (≈ 2350 µM).

With `CSCC[C@H](NC(=O)[C@@H]1CCCN1)C(=O)NO` [D] (H-Pro-Met-{NHOH}), in the assay on E. coli (setting [2]), the “MIC E. coli” value came out at 312 µg/mL (≈ 1190 µM). Also, the “MIC S. aur.” value against S. aureus (setting [2]) turned out to be 125 µg/mL (≈ 478 µM). The “MIC P. aer.” value in the assay with P. aer. (setting [2]) was 270 µg/mL (≈ 1030 µM).

`CSCC[C@H](NC(=O)[C@@H](N)C(C)C)C(=O)NO` [C] (H-Val-Met-{NHOH}): the “MIC E. coli” value against E. coli (setting [2]) stood at 520 µg/mL (≈ 1970 µM). The “MIC S. aur.” value in the assay with S. aureus (setting [2]) amounted to 416 µg/mL (≈ 1580 µM). Further, the “MIC P. aer.” value against P. aer. (setting [2]) was 833 µg/mL (≈ 3160 µM).

On to `CSCC[C@H](NC(=O)[C@@H](N)CCC(=O)O)C(=O)NO` [Compound F] (H-Glu-Met-{NHOH}), for which the “MIC E. coli” value in the assay with E. coli (setting [2]) worked out at 554 µg/mL (≈ 1890 µM). Moreover, in the assay on S. aureus (setting [2]), the “MIC S. aur.” value was 312 µg/mL (≈ 1060 µM). The “MIC P. aer.” value against P. aer. (setting [2]) is 1660 µg/mL (≈ 5660 µM).

As for `CSCC[C@H](NC(=O)[C@H](C)N)C(=O)NO` [B] (H-Ala-Met-{NHOH}), the “MIC E. coli” value with E. coli (setting [2]) worked out at 158 µg/mL (≈ 671 µM). The “MIC S. aur.” value against S. aureus (setting [2]) turned out to be 131 µg/mL (≈ 557 µM). The “MIC P. aer.” value in the assay on P. aer. (setting [2]) was 1040 µg/mL (≈ 4420 µM).

For `CC(C)(C)SCCC(NC(=O)CN)C(=O)NO` (stereo not drawn) [L] (H-Gly-[ξhCys](tBu)-{NHOH}), in the assay with E. coli (setting [1]), the “MIC E. coli” value was determined as 207 µg/mL (≈ 786 µM). Besides, in the assay with S. aureus (setting [1]), the “MIC S. aur.” value amounted to 77 µg/mL (≈ 292 µM). For the same compound, in the assay on P. aer. (setting [1]), the “MIC P. aer.” value was found to be 624 µg/mL (≈ 2370 µM).

For the compound `C[S+]([O-])CCC(NC(=O)CN)C(=O)NO` (stereo not drawn) [G], the “MIC E. coli” value against E. coli (setting [1]) stood at 123 µg/mL (≈ 518 µM). In addition, the “MIC S. aur.” value against S. aureus (setting [1]) worked out at 51 µg/mL (≈ 215 µM). Further, in the assay on P. aer. (setting [1]), the “MIC P. aer.” value was found to be 416 µg/mL (≈ 1750 µM).

With `CCCCSCCC(NC(=O)CN)C(=O)NO` (stereo not drawn) [K], the “MIC E. coli” value in the assay with E. coli (setting [1]) came out at 150 µg/mL (≈ 570 µM). In addition, the “MIC S. aur.” value against S. aureus (setting [1]) came out at 60 µg/mL (≈ 228 µM). Further, in the assay with P. aer. (setting [1]), the “MIC P. aer.” value was 138 µg/mL (≈ 524 µM).

As to `COCCC(NC(=O)CN)C(=O)NO` (stereo not drawn) [O] (H-Gly-[ξhSer](Me)-{NHOH}), the “MIC E. coli” value against E. coli (setting [1]) came out at 374 µg/mL (≈ 1820 µM). In addition, in the assay on S. aureus (setting [1]), the “MIC S. aur.” value was determined as 112 µg/mL (≈ 546 µM). For the same compound, the “MIC P. aer.” value in the assay on P. aer. (setting [1]) is 624 µg/mL (≈ 3040 µM).

Source of the values: patent US20180282271A1, “ANTIBIOTIC AMINO ACID MIMETICS” (priority 2017, published 2018).
